The values below come from US20240226107A1, “UBIQUITIN-SPECIFIC PROTEASE 1 (USP1) INHIBITOR” (SIMCERE ZAIMING PHARMACEUTICAL CO., LTD., priority 2021, published 2024).

The target of one series is PXR (Homo sapiens (Human), UniProt O75469). Nature of the series: Potential for PXR activation in DPX2 cells. Format: cell-based. Conditions: 10 μM, versus 20 μM rifampicin. On the procedure:
DMSO solutions of the compounds to be tested and the control compound rifampicin solution were prepared, and diluted with Puracyp dosing medium (Puracyp, Cat. No: D-500-100) at 37° C. to respective test concentrations. The final concentrations of the compounds to be tested were 30 μM, 10 μM, and 1 μM, respectively, and the final concentration of rifampicin was 20 μM. The final concentration of DMSO in the test solution was 0.1%. In addition, 0.1% DMSO solution prepared with Puracyp dosing medium was used as a control.
DPX2 cells were suspended in Puracyp Culture medium (Puracyp, Cat No.: C-500-100) at a cell density of 4.5×10^5 cell/mL. Then, the suspension was placed on a 96-well culture plate at 100 μL/well for incubation at 37° C. for 24 h. The medium in appropriate wells of the 96-well culture plate was replaced (three times per well) by 100 μL of solution of the compounds to be tested and a control compound solution. After replacement, the plate was incubated at 37° C. for 24 h. The medium was then replaced (three times per well) by a newly prepared test solution of the compounds to be tested and a rifampicin test solution, and the plate was incubated at 37° C. for 24 h.
The medium in the 96-well culture plate was pipetted and washed twice with PBS. To each well, 50 μL of reagent diluted as required by CellTiter-Fluor™ Cell Viability Assay Kit (Promega, Cat. No.: G6082) was added, and incubated at 37° C. for 0.5 h. The 96-well plate was cooled to room temperature, and the fluorescence value of each well at 505 nm was measured in a fluorescence mode with a microplate reader at an excitation wavelength of 400 nm. Then, 50 μL of reagent prepared as required by One-Glo Luciferase Assay System (Promega, Cat. No.: E6120) was added to each well, and the mixture was incubated at room temperature for 5 min. The luminescence value of each well was read by using a lumen meter.
Normalized luciferase activity was determined by RLU/RFU, and the RLU and RFU of the samples were mean values of duplicate wells, respectively.
[formula] • Fold of activation: fold of activation of normalized luciferase; • RLUtest: measured luminescence value of test wells at each test dose of test compounds; • RLUvehicle: measured luminescence value of test wells when tested with the control DMSO solution; • RFUtest: measured fluorescence value of test wells at each test dose of test compounds; • RFUvehicle: measured fluorescence value of test wells when tested with the control DMSO solution.
The percentage of positive control was calculated as follows:
% Positive control=(fold activationtest compound−1)/(fold activationpositive control compound−1)×100% • % Positive control: percentage of PXR activation compared with 20 μM rifampicin activation at each test dose of test compounds; • Fold activationtest compound: fold of activation of normalized luciferase at each test dose of test compounds; • Fold activationpositive control compound: fold of activation of normalized luciferase of test compounds under 20 μM rifampicin.

For series [1], the target named is USP1 (Recombinant Human His6-USP1/His6-UAF1 Complex Protein) (Homo sapiens (Human), UniProt O94782). Nature of the series: In vitro activity assay for USP1 (Ub-CHOP2-Reporter deubiquitination assay). The series is classed as biochemical. Conditions: 0.5 h incubation at room temperature, read-out: In vitro inhibitory activity of USP1 IC50. An outline of the steps: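 His6-USP1/His6-UAF1 complex was mixed with compound in 20 mM Tris-HCl pH 8.0, 2 mM CaCl2, 2 mM β-mercaptoethanol and 0.05% CHAPS. Ub-CHOP2 reporter system plus substrate was added, then incubated 0.5 h at room temperature. IC50 came from a four-parameter logistic fit.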
USP1 (Recombinant Human His6-USP1/His6-UAF1 Complex Protein), sequence (O94782 whole entry): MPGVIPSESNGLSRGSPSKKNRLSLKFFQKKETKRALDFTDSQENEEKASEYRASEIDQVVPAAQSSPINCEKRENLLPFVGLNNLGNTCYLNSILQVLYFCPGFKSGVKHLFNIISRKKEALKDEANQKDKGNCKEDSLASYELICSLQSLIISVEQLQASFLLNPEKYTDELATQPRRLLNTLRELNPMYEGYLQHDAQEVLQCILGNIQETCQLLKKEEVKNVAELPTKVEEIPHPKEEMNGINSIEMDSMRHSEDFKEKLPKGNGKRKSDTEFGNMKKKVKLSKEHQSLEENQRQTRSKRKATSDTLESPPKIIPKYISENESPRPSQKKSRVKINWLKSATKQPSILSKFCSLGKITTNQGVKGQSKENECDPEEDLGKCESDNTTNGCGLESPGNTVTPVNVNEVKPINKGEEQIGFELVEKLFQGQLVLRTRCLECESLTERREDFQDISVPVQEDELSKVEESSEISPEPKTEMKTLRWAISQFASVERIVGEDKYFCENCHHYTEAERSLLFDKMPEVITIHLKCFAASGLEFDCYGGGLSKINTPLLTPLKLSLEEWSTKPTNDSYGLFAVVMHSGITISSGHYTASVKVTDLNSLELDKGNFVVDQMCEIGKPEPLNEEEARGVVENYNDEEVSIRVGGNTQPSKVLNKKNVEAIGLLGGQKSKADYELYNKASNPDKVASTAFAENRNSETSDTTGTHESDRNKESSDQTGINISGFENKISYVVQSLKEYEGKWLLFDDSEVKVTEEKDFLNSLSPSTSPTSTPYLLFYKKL
USP1 (Recombinant Human His6-USP1/His6-UAF1 Complex Protein), sequence (Q8TAF3 whole entry partner): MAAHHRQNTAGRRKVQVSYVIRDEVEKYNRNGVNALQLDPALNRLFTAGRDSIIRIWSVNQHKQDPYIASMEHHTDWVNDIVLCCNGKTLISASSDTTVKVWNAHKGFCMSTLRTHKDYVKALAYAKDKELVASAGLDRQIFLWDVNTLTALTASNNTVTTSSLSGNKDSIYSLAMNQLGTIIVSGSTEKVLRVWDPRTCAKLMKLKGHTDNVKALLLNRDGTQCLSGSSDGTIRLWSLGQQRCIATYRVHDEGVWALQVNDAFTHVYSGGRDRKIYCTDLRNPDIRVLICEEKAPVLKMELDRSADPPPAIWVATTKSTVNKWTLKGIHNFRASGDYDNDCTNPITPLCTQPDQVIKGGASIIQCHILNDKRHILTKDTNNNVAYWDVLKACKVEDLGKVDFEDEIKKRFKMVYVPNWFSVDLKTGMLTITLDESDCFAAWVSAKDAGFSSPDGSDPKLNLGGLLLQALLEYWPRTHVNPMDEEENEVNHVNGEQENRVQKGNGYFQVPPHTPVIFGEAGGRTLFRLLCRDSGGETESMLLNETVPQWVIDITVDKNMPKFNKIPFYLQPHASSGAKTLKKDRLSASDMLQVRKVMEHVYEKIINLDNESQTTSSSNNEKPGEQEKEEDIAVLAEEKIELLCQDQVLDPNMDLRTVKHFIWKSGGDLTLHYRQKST

Series [2] is described as follows: Metabolic stability in vitro in human hepatocytes. Format: in vitro ADME. Conditions: read-out: Intrinsic clearance. Here is the method: The concentration of each compound in the reaction system was measured by LC/MS/MS to calculate the intrinsic clearance of the compounds to be tested, and evaluate the metabolic stability in vitro in human hepatocytes.
To the incubation plate, 198 μL of 0.5×10^6 cells/mL human hepatocyte mixture and 2.0 μL of 100 μM compound to be tested or positive control were added to initiate reaction. Incubation was performed at 900 rpm at 37° C. […] Then the mixture was vortex-mixed for 5 min. […] Then 100 μL of supernatant of each compound was transferred to a 96-well sample plate, and 100 μL of purified water was added to dilute the sample.
The resulting samples were quantified by ion chromatograms. The residual rate was calculated from peak areas of the compounds to be tested or the positive control. The slope k was determined using Microsoft Excel by linear regression of natural logarithm of the residual rate to the incubation time. The intrinsic clearance (in vitro CLint, μL/min/10^6 cells) was calculated from the slope value according to the following equation: […]

The nature of series [3]: Solubility (PBS pH 7.4) of compounds from DMSO solution. The series is classed as physicochemical. Conditions: aqueous buffer, kinetic from dmso stock, 10 mM DMSO solution into PBS pH 7.4, 25° C., read-out: Calculated solubility. Here is the method: The solubility (PBS pH 7.4) of a compound to be tested was determined by LC/MS/MS. 6 μL of 10 mM DMSO solution of the compound to be tested was mixed with 194 μL of DMSO to prepare 300 μM compound solution. In 490 μL of water and acetonitrile (1:1) containing an internal standard, 5 μL of the solution and 5 μL of PBS pH 7.4 solution were mixed to prepare 3 μM standard concentration solution of the sample to be tested. The dilution factor of the standard solution can be adjusted according to the strength of response signals in LC/MS.
To 485 μL of PBS pH 7.4 solution, 15 μL of 10 mM DMSO solution of the compound to be tested was added. […] After shaking, the stir bar was removed, and the sample was transferred to a filter plate and filtered using a vacuum manifold. In 490 μL of water and acetonitrile (1:1) containing an internal standard, 5 μL of filtrate and 5 μL of PBS pH 7.4 solution were mixed to prepare a solution to be tested. The dilution factor can be adjusted according to the solubility value and the strength of response signals in LC/MS.
The resulting samples were determined by LC/MS/MS. The sample solubility was calculated from peak areas of the solution of the compound to be tested and the standard concentration solution, according to the following equation:
[formula] • [Sample] is the solubility of the sample to be tested; • Area ratiosample is the ratio of the peak area of sample in the sample to be tested to the peak area of the internal standard; • INJ VOL STD is the injection volume of the standard concentration solution; • DFsample is the dilution factor of the solution of the sample to be tested; • [STD] is the concentration of the standard concentration solution; • INJ VOLsample is the injection volume of the solution of the sample to be tested; and • Area ratio STD is the ratio of the peak area of sample in the standard concentration solution to the peak area of the internal standard.

Series [4] is described as follows: Metabolic stability in vitro in rat hepatocytes. The series is classed as in vitro ADME. Conditions: read-out: Intrinsic clearance. On the procedure: The concentration of each compound in the reaction system was measured by LC/MS/MS to calculate the intrinsic clearance of the compounds to be tested, and evaluate the metabolic stability in vitro in rat hepatocytes.
To the incubation plate, 198 μL of 0.5×10^6 cells/mL rat hepatocyte mixture and 2.0 μL of 100 μM compound to be tested or positive control were added to initiate reaction. Incubation was performed at 900 rpm at 37° C. […] Then the mixture was vortex-mixed for 5 min. […] Then 100 μL of supernatant of each compound was transferred to a 96-well sample plate, and 100 μL of purified water was added to dilute the sample. The resulting samples were quantified by ion chromatograms. The residual rate was calculated from peak areas of the compounds to be tested or the positive control. The slope k was determined using Microsoft Excel by linear regression of natural logarithm of the residual rate to the incubation time. The intrinsic clearance (in vitro CLint, μL/min/10^6 cells) was calculated from the slope value according to the following equation: […]

pIC50: −log10 of the molar value. ≈ marks a conversion by molar mass, not a printed value.
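Wherever GI50 is given: MDA-MB-436 proliferation over 7 days with compound, viability read as ATP luminescence (CellTiter-Glo), inhibition relative to DMSO-only wells, day 0 signal as background, GI50 from four-parameter fit.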

PXR, sequence (O75469 whole entry): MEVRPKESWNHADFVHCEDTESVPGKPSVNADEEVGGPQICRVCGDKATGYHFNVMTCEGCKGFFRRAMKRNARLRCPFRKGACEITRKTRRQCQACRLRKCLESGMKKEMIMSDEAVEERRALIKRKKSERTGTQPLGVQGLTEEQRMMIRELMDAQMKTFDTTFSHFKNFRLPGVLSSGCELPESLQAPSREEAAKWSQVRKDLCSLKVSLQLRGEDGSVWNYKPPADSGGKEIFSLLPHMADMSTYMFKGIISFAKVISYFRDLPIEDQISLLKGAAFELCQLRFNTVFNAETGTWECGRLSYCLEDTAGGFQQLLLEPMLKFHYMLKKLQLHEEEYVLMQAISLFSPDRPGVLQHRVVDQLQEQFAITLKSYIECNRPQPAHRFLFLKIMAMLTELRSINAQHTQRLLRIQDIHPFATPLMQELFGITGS

Regarding `COc1ncnc(C2CC2)c1-c1ncc2c(n1)N(Cc1ccc(-c3nc(C(F)(F)F)cn3C)cc1)C(=O)OC21CC1` [Compound 52, 7′-(4-cyclopropyl-6-methoxypyrimidin-5-yl)-1′-(4-(1-methyl-4-(trifluoromethyl)-1H-imidazol-2-yl)benzyl)spiro[cyclopropane-1,4′-pyrimido[4,5-d][1,3]oxazine]-2′(1′H)-one], the “PXR activation (% Positive control)” value at PXR stood at 20.9 % Positive control. Moreover, in the series on MDA-MB-436 cells, growth was halved (GI50) at 59.6 nM. Further, the pIC50 in series [1] is 7.63.

With `COc1ncnc(C2CC2)c1-c1ncc2c(n1)N(Cc1ccc(-n3nc(C(F)(F)F)cc3C)cc1)CC(=O)N2C` [Compound 43, 2-(4-cyclopropyl-6-methoxypyrimidin-5-yl)-5-methyl-8-(4-(5-methyl-3-(trifluoromethyl)-1H-pyrazol-1-yl)benzyl)-7,8-dihydropteridin-6(5H)-one], on PXR, the “PXR activation (% Positive control)” value is given as 3.2 % Positive control. The molecule also had a GI50 in the series with MDA-MB-436 cells of 32.6 nM. Besides, the pIC50 in series [1] was 7.65.

Molecule `COc1ncnc(C2CC2)c1-c1ncc2c(n1)N(Cc1ccc3c(c1)CCCn1cc(C(F)(F)F)nc1-3)CC(=O)N2C` [Compound 45, 2-(4-cyclopropyl-6-methoxypyrimidin-5-yl)-5-methyl-8-((2-(trifluoromethyl)-6,7-dihydro-5H-benzo[c]imidazo[1,2-a]azepin-9-yl)methyl)-7,8-dihydropteridin-6(5H)-one] came in with a GI50 with MDA-MB-436 cells of 53.2 nM. Further, in series [1], the negative-log IC50 (pIC50) is 7.70. Moreover, the hepatocyte CLint at 1 μM in series [2] turned out to be 4.26 µL/min/1e6 cells. For the same molecule, in series [3], the solubility at 2 h is 88 µM (≈ 50.7 µg/mL).

`COc1ncnc(C2CC2)c1-c1ncc2c(n1)N(Cc1ccc(-c3nc(C(F)(F)F)cn3C)cc1)C(=O)C(C)(C)O2` [Compound 22, 2-(4-cyclopropyl-6-methoxypyrimidin-5-yl)-6,6-dimethyl-8-(4-(1-methyl-4-(trifluoromethyl)-1H-imidazol-2-yl)benzyl)-6H-pyrimido[5,4-b][1,4]oxazin-7(8H)-one]: the hepatocyte CLint at 1 μM was 6.4 µL/min/1e6 cells in series [4] and 4.85 µL/min/1e6 cells in series [2]. Besides, it took 19.9 nM to inhibit growth in the series on MDA-MB-436 cells by half (GI50). In addition, in series [1], the pIC50 was 7.84.

Broadly, the GI50 is the concentration at which growth is held to half of that of the control. A high value points to less potent growth inhibition. Broadly, the pIC50 is −log10 of the IC50, conventionally taken in molar units. As a reminder, the solubility is how much of the substance goes into solution per volume.
